Activity calls are given as the source filed them.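 How the source made its calls: active means Ki at or below 10 µM; inactive means Ki above 10 µM.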
These compounds were tested against Fibrinogen beta chain (Homo sapiens) (UniProt P02675) (assay: displacement of Tn6 from fibrin D-dimer/E complex – biochemical, fluorescence polarization, Ki, set 1, late-stage follow-up (AID 1053202)). Settings: Purified DD(E), TRITC-Tn6 peptide displacement, protein 1 µM, probe 0.05 µM.
Sequence of Fibrinogen beta chain (Homo sapiens) (P02675 whole entry, looked up): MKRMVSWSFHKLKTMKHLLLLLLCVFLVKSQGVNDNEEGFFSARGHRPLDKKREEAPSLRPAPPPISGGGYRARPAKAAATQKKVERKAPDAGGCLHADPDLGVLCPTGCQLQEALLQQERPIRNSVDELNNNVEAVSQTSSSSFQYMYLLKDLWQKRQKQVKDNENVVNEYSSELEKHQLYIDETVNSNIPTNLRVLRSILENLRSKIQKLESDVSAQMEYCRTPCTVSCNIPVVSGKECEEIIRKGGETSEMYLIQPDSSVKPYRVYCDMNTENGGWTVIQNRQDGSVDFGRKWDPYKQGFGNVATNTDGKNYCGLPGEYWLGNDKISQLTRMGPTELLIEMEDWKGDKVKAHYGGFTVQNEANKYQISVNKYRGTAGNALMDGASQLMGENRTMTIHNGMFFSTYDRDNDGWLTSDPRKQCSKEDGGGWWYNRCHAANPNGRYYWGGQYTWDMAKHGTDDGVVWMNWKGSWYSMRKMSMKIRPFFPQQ

Row | SMILES | Ki
1 | OCCn1c(CSc2nnc(-c3ccc4c(c3)OCO4)o2)nc2ccc(Cl)cc21 | inactive
2 | CCn1c(CSc2nnc(-c3ccncc3)n2CCOC)nc2cc(C(=O)O)ccc21 | 3.75 µM
3 | CCn1c(CSc2ncn[nH]2)nc2cc(C(=O)O)ccc21 | inactive
4 | CCn1c(CSc2nc3ccccc3[nH]2)nc2cc(C(=O)O)ccc21 | inactive
5 | CCn1c(CSc2nccn2C)nc2cc(C(=O)O)ccc21 | inactive
6 | CCn1c(CSc2nnc3ccccn23)nc2cc(C(=O)O)ccc21 | 2.3 µM
7 | CCn1c(CSc2n[nH]c(N)n2)nc2cc(C(=O)O)ccc21 | 5.11 µM
8 | CCn1c(CSc2nnc(-c3ccncc3)n2C)nc2cc(C(=O)O)ccc21 | 5.1 µM

Same assay, conditions: Purified DD(E), TRITC-Tn6 peptide displacement, protein 2 µM, probe 0.1 µM

Row | SMILES | Ki
9 | OCCn1c(CSc2nc3ccccc3o2)nc2ccc(Cl)cc21 | inactive
10 | CCCCn1c(CSc2nnc(-c3ccccc3F)n2C)nc2cc(S(N)(=O)=O)ccc21 | inactive
11 | C=CCNc1nnc(SCc2nc3cc(S(=O)(=O)N(C)C)ccc3n2CCC)s1 | inactive
12 | COc1ccc2nc(SCc3nc4ccc(Cl)cc4n3CCO)[nH]c2c1 | inactive
13 | CCn1c(CSc2nc3ccccc3s2)nc2cc(C(=O)O)ccc21 | 4.57 µM
14 | CCn1c(CSc2nc(C3CC3)n(-c3ccccc3)n2)nc2cc(S(=O)(=O)N(C)C)ccc21 | 2.46 µM
15 | CCCCn1c(CSc2nnc(-c3ccco3)n2C)nc2cc(S(N)(=O)=O)ccc21 | inactive
16 | CCn1c(CSc2nnc(Nc3ccccc3F)s2)nc2cc(C(=O)O)ccc21 | 2.82 µM
17 | Nc1nnc(SCc2nc3ccccc3[nH]2)s1 | inactive
18 | CCCn1c(SCc2nc3cc(S(=O)(=O)N4CCOCC4)ccc3n2CCC)n[nH]c1=O | 5.1 µM
19 | CCn1c(CSc2nc3ccccc3c(=O)n2-c2ccccc2F)nc2cc(C(=O)O)ccc21 | inactive
20 | CCn1c(CSc2nccn2C)nc2cc(S(=O)(=O)N3CCCCC3)ccc21 | 5.1 µM
21 | CCCCn1c(CSc2nnc(-c3ccccc3F)n2N)nc2cc(S(N)(=O)=O)ccc21 | inactive
22 | CCn1c(CSc2n[nH]c(-c3ccccc3)n2)nc2cc(S(=O)(=O)N3CCCCC3)ccc21 | inactive
23 | CCn1c(CSc2n[nH]c(N)n2)nc2cc(F)ccc21 | inactive
24 | CCCn1c(SCc2nc3cc(C(=O)O)ccc3n2CC)nc2ccccc2c1=O | 1.34 µM
25 | CCn1c(CSc2nnc(N)s2)nc2cc(F)ccc21 | 2.3 µM
26 | C=CCn1c(SCc2nc3ccc(Cl)cc3n2CCO)nnc1-c1ccc(Cl)cc1 | inactive
27 | CCn1c(CSc2nncn2C)nc2cc(C(=O)O)ccc21 | 5.01 µM
28 | CCn1c(CSc2nnc(-c3ccoc3C)o2)nc2cc(S(=O)(=O)N(C)C)ccc21 | inactive
29 | CCn1c(CSc2nnnn2-c2ccccc2)nc2cc(C(=O)O)ccc21 | inactive
30 | CCn1c(CSc2nnnn2C(C)C)nc2cc(C(=O)O)ccc21 | inactive
31 | CCn1c(CSc2nnc(COc3ccc(OC)cc3)n2-c2ccccc2F)nc2cc(C(=O)O)ccc21 | 5.6 µM
32 | CCn1c(CSc2ncnc3sc(C)c(C)c23)nc2cc(C(=O)O)ccc21 | inactive
33 | CCn1c(CSc2ccc(NC(C)=O)cc2)nc2cc(C(=O)O)ccc21 | inactive
34 | CCCCn1c(CSc2nc3ccccc3[nH]2)nc2cc(S(N)(=O)=O)ccc21 | inactive
35 | Nn1cc(-c2ccccc2)nc1SCc1nc2ccc(Cl)cc2n1CCO | inactive
36 | CCCCn1c(CSc2n[nH]c(=O)n2CCC)nc2cc(S(N)(=O)=O)ccc21 | inactive
37 | CCn1c(CSc2nc3sc4c(c3c(=O)n2CCOC)CCCC4)nc2cc(C(=O)O)ccc21 | inactive
